The subject of one assay is C. elegans. The experiment in a line: Ascaroside function (Table 12), C. elegans. The class given is in vivo, Caenorhabditis elegans. On the set-up: key to Attract Females/Herm. / Promote Dauer Formation / Attract Males: A very strong result of affecting nematode behavior is designated in the table as “strong.”. The procedure:
(§1) Various ascarosides and ascaroside blends were administered to various nematodes described below (Table 12). […] A very strong result of affecting nematode behavior is designated in the table as “strong.”

In assay [1] the test system is several of the tested nematode species. Put plainly: Retention assay, across species. It is filed as in vivo. The settings on record: 1 nM, 1 μM and 1 mM tested. The procedure:
OP50 E. coli was grown on a standard 5 cm agar plate (made with standard Nematode Growth Medium). The bacterial lawn was 16 mm in diameter and was grown overnight at 20° C. before being used in trials. Two 4 mm spots (0.6 μL) were placed on opposite sides of the bacterial lawn (using a transparent template to guide spot placement), and several minutes elapsed for the liquid to settle in before placing nematodes down on the assay. Recording began immediately upon worm placement. 0.6 μL of the control was placed on one side of the lawn, and 0.6 μL of the experimental cue was placed on the other side of the lawn, changing the location of the cue throughout trials between left/right and top/bottom to avoid bias.
Nematodes were isolated by gender at the L4 stage the day before being used in trials as developed adults. Worms were evenly divided and placed at two points equidistant from the foci of the scoring region. Trials were recorded for 20 minutes, and frames were collected for analysis at 1 frame per second. Results were averaged from at least three different trials. For every nematode species in this study, a different total number of worms (using water in both scoring regions) was tested to determine the minimum number of worms necessary for consistent unbiased results over a 20 minute trial. The total number of worms used in the multiple species assays depended on that species' optimal parameters. 10 worms were used for P. redivivus males and females, 20 worms were used for C. elegans males and O. dolichuridae males, and 14 worms were used for S. glaseri males. The Automated Software was used to compare worm occupancy in each scoring region over time, and the Chemotaxis Index (Bargmann et al., Cell 74:515-27 (1993), which is hereby incorporated by reference in its entirety) was adapted to score preference or avoidance to each ascaroside.
A video camera attached to the microscope produced a digital video stream, which was then analyzed. The ratio of the time the average worm spent in each region of interest was calculated for every trial. For ease of implementation, all worms in a single experiment were assumed to be roughly the same size. Thus worm pixels were counted instead of whole worms, allowing fractions of a worm in the region of interest to be taken into account. It also eliminated the need for a shape-based worm identification algorithm, and allowed each frame to be analyzed independently. A band-pass filter was applied to each frame to eliminate the effect of uneven lighting and also accentuate the worms against the background. The worm was then identified after thresholding the filtered image. Throughout each experiment, the locations and sizes of the regions of interest were known. Through the filtering described above, it is known which pixels are occupied by worms and which ones are not. Thus, the ratio of worm-pixels to all pixels inside the region of interest can be calculated to produce the worm-occupancy ratio. This calculation was done for every frame, giving a plot output of worm-occupancy ratio vs. time for each region.

The subject of a further assay is Panagrellus redivivus. The experiment in a line: Ascaroside function (Table 12), Panagrellus redivivus. It is filed as in vivo. The method, then: as §1
The next assay relates to S. glaseri. Put plainly: Ascaroside function (Table 12), S. glaseri. It is filed as in vivo. The method, then:
as §1

In assay [2] the test system is Meloidogyne javanica, M. floridensis, M. incognita, M. hapla. The experiment in a line: Ascaroside function (Table 12), root-knot nematodes. It is filed as in vivo, Meloidogyne spp. The settings on record: for Dispersal (of dauer larvae, infectious juveniles) / Repel Females/Herm.: Meloidogyne javanica, M. floridensis, M. incognita, M. hapla, entries marked *; for act as dispersants and repellants in Meloidogyne species: alone, in concert, and/or in concert with ascr#9 or other ascarosides. The method, then:
as §1

Assay [3] deals with Heterorhabditis bacteriophora, H. zealandica, H. floridensis. The experiment in a line: Ascaroside function (Table 12), Heterorhabditis. The class given is in vivo, Heterorhabditis spp. The settings on record: for Dispersal (of dauer larvae, infectious juveniles) / Repel Females/Herm.: Heterorhabditis bacteriophora, H. zealandica, H. floridensis, entries marked *; for act as dispersants and repellants in Heterorhabditis: alone, in concert, and/or in concert with ascr#9 or other ascarosides. The procedure:
as §1

Assay [4] relates to C. elegans hermaphrodites and males. Put plainly: Spot attraction assay. The class given is in vivo. The method, then: The spot attraction assays were conducted according to a previously reported method (Pungaliya et al., PNAS 106:7708-13 (2009); Srinivasan et al., Nature 454:1115-18 (2008), which are hereby incorporated by reference in their entirety). For both C. elegans hermaphrodites and males, 50-60 worms were harvested daily at the fourth larval stage (L4) and stored segregatedly by sex at 20° C. overnight, to be used as young adults the following day. For the competition experiments, two conditions were used: 120 nM ascr#3 and 10 nM icas#3 (Condition 1), or 12 μM ascr#3 and 1 μM icas#3 (Condition 2) in water containing 10% ethanol. Aliquots were stored at −20° C. in 20 μL tubes. 10% ethanol in water was used as control.
Attraction assays with hbas#3 were conducted as previously reported (Srinivasan et al., Nature 454:1115-18 (2008); Pungaliya et al., Proc. Natl. Acad. Sci. U.S.A. 106:7708-13 (2009), which are hereby incorporated by reference in their entirety). For the attraction assays, 50-60 hermaphrodite worms were harvested daily at the early fourth larval stage (L4) and stored at 20° C. overnight to be used as young adults the following day. Hbas#3 was dissolved in water containing 10% ethanol. Aliquots were stored at −20° C. in 20 μL tubes. 10% ethanol in water was used as control.

Assay [5] concerns C. elegans hermaphrodites. Put plainly: Quadrant chemotaxis assay. The class given is in vivo. The settings on record: FIGS. 48A-B (spot attraction and quadrant chemotaxis). The procedure: Chemotaxis to both non-indole and indole ascarosides was assessed on 10 cm four-quadrant petri plates (Wicks et al., Dev. Biol. 221:295-307 (2000), which is hereby incorporated by reference in its entirety). Each quadrant was separated from adjacent ones by plastic spacers (FIG. 1B). Pairs of opposite quadrants were filled with nematode growth medium (NGM) agar containing either indole ascarosides or non-indole ascarosides at different concentrations. Animals were washed gently in a S-basal buffer, placed in the center of a four-quadrant plate with ascarosides in alternating quadrants, and scored after 15 minutes and 30 minutes. A chemotaxis index was calculated as: (the number of animals on ascaroside quadrants minus the number of animals on buffer quadrants)/(total number of animals).
Chemotaxis to hbas#3 was assessed on 10 cm four-quadrant petri plates (Wicks et al., Dev. Biol. 221:295-307 (2000), which is hereby incorporated by reference in its entirety). Each quadrant was separated from adjacent ones by plastic spacers. Pairs of opposite quadrants were filled with nematode growth medium (NGM) agar containing different concentrations of hbas#3. Animals were washed gently in an S-basal buffer and placed in the center of a four-quadrant plate with ascarosides in alternating quadrants, and scored after 15 minutes and 30 minutes. A chemotaxis index was calculated as: (the number of animals on ascaroside quadrants minus the number of animals on buffer quadrants)/(total number of animals).

Each structure is given as a SMILES string. Entries after “also recorded” stand apart in the source; their conditions may differ.

Take `CC(=O)CC[C@@H](C)O[C@@H]1O[C@@H](C)[C@H](O)C[C@H]1O[C@@H]1O[C@H](CO)[C@@H](O)[C@H](O)[C@H]1O` [ascr#4]: the “Promote Dauer Formation” value in the assay on C. elegans is “ascr#4”.
For `C[C@@H]1O[C@@H](OCCC(=O)O)[C@H](O)C[C@H]1O` [ascr#5], in the assay with C. elegans, the “Promote Dauer Formation” value is “([strong])” and the “Repel Females/Herm.” value is on record as “ascr#5”.
Regarding `C[C@H](CC/C=C/C(=O)O)O[C@@H]1O[C@@H](C)[C@H](O)C[C@H]1O` [ascr#7], the “preference for areas conditioned by ascaroside” value in assay [1] is given as “preferred”. The “Attract Males” value in the assay with C. elegans, in the assay on Panagrellus redivivus and with S. glaseri was “ascr#7” each time.
On to `CC1O[C@@H](O[C@H](C)CCCCCCC(=O)O)C(O)C[C@H]1O` (some centres unmarked) [ascr#10], for which, in assay [1], the “preference for areas conditioned by ascaroside” value is “preferred”. Also, the “Attract Males” value in the assay on C. elegans, in the assay with Panagrellus redivivus and in the assay with S. glaseri was “ascr#10” throughout. Moreover, the “Dispersal (of dauer larvae, infectious juveniles)” value (“Dispersal” for short) in assay [2] is reported as “ascr#10*”. For the same compound, the “Repel Females/Herm.” value in assay [2] is given as “ascr#10*”. Further, in assay [2], the “act as dispersants and repellants in Meloidogyne species” value (from here on “act … in Meloidogyne species”) was “dispersants and repellants”.
`CC1OC(O[C@H](C)CCCCCCCC(=O)O)C(O)CC1O` (some centres unmarked) [ascr#16]: in assay [2], the “Dispersal” value is given as “ascr#16*”; the “Repel Females/Herm.” value is on record as “ascr#16*”; the “act … in Meloidogyne species” value is “dispersants and repellants”.
As to `CC1OC(O[C@H](C)CCCCCCCCC(=O)O)C(O)CC1O` (some centres unmarked) [ascr#18], in assay [2], the “Dispersal” value is listed as “ascr#18*”; the “Repel Females/Herm.” value was “ascr#18*”; the “act … in Meloidogyne species” value was “dispersants and repellants”. In assay [3], the “Dispersal” value is “ascr#18*”; the “Repel Females/Herm.” value was “ascr#18*”; the “act as dispersants and repellants in Heterorhabditis” value was “dispersants and repellants”.
`CC1OC(O[C@H](C)CCCCCCCCCC(=O)O)C(O)CC1O` (some centres unmarked) [ascr#20]: in assay [2], the “Dispersal” value is recorded as “ascr#20*”; the “Repel Females/Herm.” value is listed as “ascr#20*”; the “act … in Meloidogyne species” value is “dispersants and repellants”.
Turning to `C[C@H](CCCCCCCCCCC(=O)O)O[C@@H]1O[C@@H](C)[C@H](O)C[C@H]1O` [ascr#22], in assay [2], the “Dispersal” value is reported as “ascr#22*”; the “Repel Females/Herm.” value is listed as “ascr#22*”; the “act … in Meloidogyne species” value is “dispersants and repellants”. Also, in assay [3], the “Dispersal” value is recorded as “ascr#22*”; the “Repel Females/Herm.” value was “ascr#22*”; the “act as dispersants and repellants in Heterorhabditis” value was “dispersants and repellants”.
Turning to `C[C@H](CCCC/C=C/C(=O)O)O[C@@H]1O[C@@H](C)[C@H](OC(=O)c2ccc(O)cc2)C[C@H]1O` [hbas#3, (8R)-(3′R-Hydroxy-5′R-(4-hydroxybenzoyloxy)-6′S-methyl-(2H)-tetrahydropyran-2′-yloxy)non-(2E)-enoic acid], the “attraction of wild-type (N2) hermaphrodites” value in assay [4] (dose dependent manner) was “attracted”. The “concentration at which C. elegans is strongly attracted (as low as)” value in assay [5] is at most 10 femtomolar. In the assay on C. elegans, the “Attract Females/Herm.” value is “([very” and the “Attract Males” value was “([strong])”.
Regarding `C[C@H](CCCCC(=O)O)O[C@@H]1O[C@@H](C)[C@H](OC(=O)c2c[nH]c3ccccc23)C[C@H]1O` [icas#1], the “attraction of both C. elegans sexes” value in assay [4] (high concentrations, 1 μmol, N2 hermaphrodites and him-5 males) is “attractive; also recorded: attracted”. Moreover, in the assay with C. elegans, the “Attract Females/Herm.” value is “([strong])” and the “Attract Males” value is “([strong])”.
For the compound `C[C@@H]1O[C@@H](OCCCCC(=O)O)[C@H](O)C[C@H]1O` [oscr#9, 5-(3′R,5′R-Dihydroxy-6′S-methyl-(2H)-tetrahydropyran-2′-yloxy)pentanoic acid], the “Attract Males” value in the assay with Panagrellus redivivus was “oscr#9”.
Regarding `CC1O[C@@H](OCCCCCCCCC(=O)O)C(O)C[C@H]1O` (stereo partly drawn) [oscr#10, 9-(3′R,5′R-Dihydroxy-6′S-methyl-(2H)-tetrahydropyran-2′-yloxy)nonanoic acid], in the assay with Panagrellus redivivus, the “Repel Males” value is recorded as “oscr#10”.

Values taken from patent publication US9534008B2, “Small molecule compounds that control plant- and insect-pathogenic nematodes” (California Institute of Technology, priority 2011, dated 2017).
